# In patent US8263620B2, “Oxadiazole derivatives active on sphingosine-1-phosphate (SIP)” (Glaxo Group Limited, priority 2007, dated 2012):
# Where a name gives a salt, the structure may show the parent alone.
# Legend:
# human S1P3 receptor = target: T1, human S1P3 receptor (Homo sapiens, UniProt Q99500); experiment: S1P3 GTPγS assay; assay type: biochemical; conditions: [35S]-GTPγS SPA, S1P3 RBL-2H3 membranes, agonist
# T1 construct: expressed in transfected cells; membranes
# Procedure: For membrane preparations all steps were performed at 4° C. Rat hepatoma cells stably expressing the human S1P1 receptor or Rat Basophilic Leukaemia cells (RBL) stably expressing human S1P3 receptor were grown to 80% confluency before being harvested into 10 ml Phospho-Buffered Saline (PBS) and centrifuged at 1200 rpm for 5 minutes. After removal of the supernatant, the pellet was re-suspended and cells were homogenised within a glass Waring blender for 2 bursts of 15 secs in 200 mls of buffer (50 mM HEPES, 1 mM leupeptin, 25 μg/ml bacitracin, 1 mM EDTA, 1 mM PMSF, 2 μM pepstatin A). The blender was plunged into ice for 5 mins after the first burst and 10-40 mins after the final burst to allow foam to dissipate. The material was then spun at 500 g for 20 mins and the supernatant spun for 36 mins at 48,000 g. The pellet was resuspended in the same buffer as above but without PMSF and pepstatin A. The material was then forced through a 0.6 mm needle, made up to the required volume, (usually ×4 the volume of the original cell pellet), aliquoted and stored frozen at −80° C.
# After 30 minutes pre-coupling on ice the bead and membrane suspension was dispensed into a white Greiner polypropylene LV384-well plate (5 μl/well), containing 0.1 μl of the compound. 5 μl/well [^35S]-GTPγS (0.5 nM final radioligand conc) made up in assay buffer was then added to agonist plates. The final assay cocktail (10.1 μl) was centrifuged at 1000 rpm for 5 minutes then read immediately on a Viewlux reader.
# All test compounds were dissolved in DMSO at a concentration of 10 mM and were prepared in 100% DMSO using a 1 in 4 dilution step to provide 11 point dose response curves. The dilutions were transferred to the assay plates ensuring that the DMSO concentration was constant across the plate for all assays.
# All data was normalized to the mean of 16 high and 16 low control wells on each plate. A four parameter curve fit was then applied.
# S1P3 expressing RBL membranes (1.5 μg/well) were homogenised by passing through a 23 G needle. […] GDP 10 μM FAC and saponin 90 μg/ml FAC were also added
# After 30 minutes precoupling on ice, the bead and membrane suspension was dispensed into white Greiner polypropylene LV 384-well plates (5 μl/well), containing 0.1 μl of compound. 5 μl/well [^35S]-GTPγS (0.5 nM for S1P1 or 0.3 nM for S1P3 final radioligand concentration) made in assay buffer was then added to the plates. The final assay cocktail (10.1 μl) was then sealed, spun on a centrifuge, then read immediately on a Viewlux instrument.
# circulating lymphocytes = conditions: animals and man; cited from earlier work
# [1] = clinical studies, first 24 hours of treatment; cited from earlier work
# T1 sequence (Q99500 whole entry): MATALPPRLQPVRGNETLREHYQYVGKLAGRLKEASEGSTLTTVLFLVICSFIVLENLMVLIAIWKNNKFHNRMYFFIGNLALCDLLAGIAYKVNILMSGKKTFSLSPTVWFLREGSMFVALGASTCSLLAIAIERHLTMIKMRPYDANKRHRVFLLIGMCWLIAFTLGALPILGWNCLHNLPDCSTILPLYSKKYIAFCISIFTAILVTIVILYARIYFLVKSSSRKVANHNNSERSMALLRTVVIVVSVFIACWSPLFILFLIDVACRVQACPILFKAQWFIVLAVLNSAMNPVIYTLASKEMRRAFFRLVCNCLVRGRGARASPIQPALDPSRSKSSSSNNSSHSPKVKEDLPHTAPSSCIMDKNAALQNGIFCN
SMILES,EC50 (human S1P3 receptor),effect on circulating lymphocytes (circulating lymphocytes),bradycardia [1]
"Cc1c(-c2noc(-c3ccc(OC(C)C)c(Cl)c3)n2)ccc2c1CCNC2CCCC(=O)O (stereo not drawn) [Example 5, 4-[6-(5-{3-Chloro-4-[(1-methylethyl)oxy]phenyl}-1,2,4-oxadiazol-3-yl)-5-methyl-1,2,3,4-tetrahydro-1-isoquinolinyl]butanoic acid trifluoroacetate]",> 10 µM,–,–
"Cc1c(-c2noc(-c3ccc(OC(C)C)c(C#N)c3)n2)ccc2c1CCNC2CCCC(=O)O (stereo not drawn) [Example 6, 4-[6-(5-{3-Cyano-4-[(1-methylethyl)oxy]phenyl}-1,2,4-oxadiazol-3-yl)-5-methyl-1,2,3,4-tetrahydro-1-isoquinolinyl]butanoic acid trifluoroacetate]",> 10 µM,–,–
CCCCCCCCc1ccc(CCC(N)(CO)CO)cc1 [FTY720],–,reduce circulating lymphocytes,results in bradycardia in the first 24 hours of treatment

# Further lines, with some results ahead:
EC50 (human S1P3 receptor),SMILES,effect on circulating lymphocytes (circulating lymphocytes),bradycardia [1]
> 10 µM,"Cc1c(-c2noc(-c3ccc(OC(C)C)c(Cl)c3)n2)ccc2c1CCNC2CC(=O)O (stereo not drawn) [Example 3, [6-(5-{3-Chloro-4-[(1-methylethyl)oxy]phenyl}-1,2,4-oxadiazol-3-yl)-5-methyl-1,2,3,4-tetrahydro-1-isoquinolinyl]acetic acid trifluoroacetate]",–,–
> 10 µM,"Cc1c(-c2noc(-c3ccc(OC(C)C)c(C#N)c3)n2)ccc2c1CCNC2CC(=O)O (stereo not drawn) [Example 4, [6-(5-{3-Cyano-4-[(1-methylethyl)oxy]phenyl}-1,2,4-oxadiazol-3-yl)-5-methyl-1,2,3,4-tetrahydro-1-isoquinolinyl]acetic acid trifluoroacetate]",–,–
